Patent US9150566B2, “2-(1,2,3-triazol-2-yl)benzamide and 3-(1,2,3-triazol-2-YL)picolinamide derivatives as orexin receptor antagonists” (ACTELION PHARMACEUTICALS LTD., priority 2011, dated 2015)
Where two headings read alike, the source gives them in different places.

Columns and labels:
human orexin-1 receptor = human orexin-1 receptor (Homo sapiens (Human), UniProt O43613); experiment: In vitro intracellular calcium measurements (FLIPR), antagonistic activity on orexin-1 receptor; assay type: cell-based; settings: read-out: IC50 OX1
Chain of human orexin-1 receptor (O43613 whole entry): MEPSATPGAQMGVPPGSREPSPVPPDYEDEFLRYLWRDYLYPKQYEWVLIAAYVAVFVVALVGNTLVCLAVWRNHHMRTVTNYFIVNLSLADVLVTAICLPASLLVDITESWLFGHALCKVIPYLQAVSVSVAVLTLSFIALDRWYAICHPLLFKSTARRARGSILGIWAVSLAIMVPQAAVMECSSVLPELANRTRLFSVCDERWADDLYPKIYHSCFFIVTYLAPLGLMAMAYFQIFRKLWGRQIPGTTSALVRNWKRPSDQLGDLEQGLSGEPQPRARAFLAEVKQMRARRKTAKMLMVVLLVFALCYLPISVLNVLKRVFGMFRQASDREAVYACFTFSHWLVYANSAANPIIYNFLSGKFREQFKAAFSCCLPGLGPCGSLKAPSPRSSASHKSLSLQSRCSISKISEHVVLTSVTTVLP
Outline: (§1)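 Recombinant CHO lines bearing human OX1 or OX2 receptors received test antagonist 120 min before agonist addition.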

human orexin-2 receptor = human orexin-2 receptor (Homo sapiens (Human), UniProt O43614); experiment: In vitro intracellular calcium measurements (FLIPR), antagonistic activity on orexin-2 receptor; assay type: cell-based; settings: read-out: IC50 OX2
Chain of human orexin-2 receptor (O43614 whole entry): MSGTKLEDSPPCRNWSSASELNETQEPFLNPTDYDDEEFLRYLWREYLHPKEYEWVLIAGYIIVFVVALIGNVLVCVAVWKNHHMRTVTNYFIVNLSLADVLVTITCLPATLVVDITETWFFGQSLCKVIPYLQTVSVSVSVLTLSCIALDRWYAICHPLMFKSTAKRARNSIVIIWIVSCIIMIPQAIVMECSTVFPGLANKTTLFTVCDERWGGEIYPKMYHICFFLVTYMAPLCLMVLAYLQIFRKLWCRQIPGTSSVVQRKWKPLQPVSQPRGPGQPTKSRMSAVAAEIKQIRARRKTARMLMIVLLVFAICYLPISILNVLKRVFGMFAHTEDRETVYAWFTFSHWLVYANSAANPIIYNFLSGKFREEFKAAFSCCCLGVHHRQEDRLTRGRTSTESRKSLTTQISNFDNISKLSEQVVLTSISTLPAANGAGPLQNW
Outline: as §1

CYP3A4 = CYP3A4 (Homo sapiens (Human), UniProt P08684); experiment: CYP3A4 inhibition assay (human liver microsomes, testosterone 6β-hydroxylation); settings: read-out: CYP3A4 IC50, 40 μM testosterone
Chain of CYP3A4 (P08684 whole entry): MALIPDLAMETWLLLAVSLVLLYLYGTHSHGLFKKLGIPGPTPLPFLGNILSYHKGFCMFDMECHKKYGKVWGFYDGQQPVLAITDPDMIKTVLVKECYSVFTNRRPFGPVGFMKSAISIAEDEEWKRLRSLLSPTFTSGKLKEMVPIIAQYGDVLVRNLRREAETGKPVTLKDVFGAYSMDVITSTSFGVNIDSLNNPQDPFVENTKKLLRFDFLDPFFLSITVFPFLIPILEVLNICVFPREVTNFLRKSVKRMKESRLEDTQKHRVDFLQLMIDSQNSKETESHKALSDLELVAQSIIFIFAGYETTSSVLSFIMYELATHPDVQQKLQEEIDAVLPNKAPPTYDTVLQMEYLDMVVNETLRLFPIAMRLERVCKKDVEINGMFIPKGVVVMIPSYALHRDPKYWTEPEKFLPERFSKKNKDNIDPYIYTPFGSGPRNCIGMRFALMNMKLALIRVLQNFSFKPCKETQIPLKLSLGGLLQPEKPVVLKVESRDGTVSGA

[1] = CHO cells expressing human orexin-1 receptor, FLIPR, 3 nM orexin-A agonist, 120 min antagonist incubation, geometric mean if determined several times
[2] = CHO cells expressing human orexin-2 receptor, FLIPR, 3 nM orexin-A agonist, 120 min antagonist incubation, geometric mean if determined several times

Structure (SMILES) | IC50 (human orexin-1 receptor; [1]) [nM] | IC50 (human orexin-2 receptor; [2]) [nM] | IC50 (CYP3A4) [nM] | IC50 (human orexin-1 receptor) [nM] | IC50 (human orexin-2 receptor) [nM]
Cc1cccc(C(=O)N2CCOC[C@H]2Cc2cc(Cl)cc(-n3nccn3)c2)c1-n1nccn1 [Example 106, [(R)-3-(3-Chloro-5-[1,2,3]triazol-2-yl-benzyl)-morpholin-4-yl]-(3-methyl-2-[1,2,3]triazol-2-yl-phenyl)-methanone] | 3 | 335 | 14000 |  | 
O=C(c1cccc(Cl)c1-n1nccn1)N1CCOC[C@H]1Cc1cccc(-n2nccn2)c1 [Example 107, (3-Chloro-2-[1,2,3]triazol-2-yl-phenyl)-[(R)-3-(3-[1,2,3]triazol-2-yl-benzyl)-morpholin-4-yl]-methanone] | 5 | 435 | 22000 |  | 
C[C@@H]1CN(C(=O)c2ccccc2-n2nccn2)[C@H](Cc2cccc(-c3ncccn3)c2)CO1 [Example 108, [(2R,5R)-2-Methyl-5-(3-pyrimidin-2-yl-benzyl)-morpholin-4-yl]-(2-[1,2,3]triazol-2-yl-phenyl)-methanone] | 10 | 855 | 46000 |  | 
Cc1ccc(-n2nccn2)c(C(=O)N2C[C@@H](C)OC[C@H]2Cc2cccc(-c3ncccn3)c2)c1 [Example 109, [(2R,5R)-2-Methyl-5-(3-pyrimidin-2-yl-benzyl)-morpholin-4-yl]-(5-methyl-2-[1,2,3]triazol-2-yl-phenyl)-methanone] | 1 | 105 | 43000 |  | 
Cc1ccc(C(=O)N2C[C@@H](C)OC[C@H]2Cc2cccc(-c3ncccn3)c2)c(-n2nccn2)c1 [Example 110, [(2R,5R)-2-Methyl-5-(3-pyrimidin-2-yl-benzyl)-morpholin-4-yl]-(4-methyl-2-[1,2,3]triazol-2-yl-phenyl)-methanone] | 2 | 176 | > 50000 |  | 
Cc1cccc(C(=O)N2C[C@@H](C)OC[C@H]2Cc2cccc(-c3ncccn3)c2)c1-n1nccn1 [Example 111, [(2R,5R)-2-Methyl-5-(3-pyrimidin-2-yl-benzyl)-morpholin-4-yl]-(3-methyl-2-[1,2,3]triazol-2-yl-phenyl)-methanone] | 7 | 983 | 40000 |  | 
C[C@@H]1CN(C(=O)c2cc(Cl)ccc2-n2nccn2)[C@H](Cc2cccc(-c3ncccn3)c2)CO1 [Example 113, (5-Chloro-2-[1,2,3]triazol-2-yl-phenyl)-[(2R,5R)-2-methyl-5-(3-pyrimidin-2-yl-benzyl)-morpholin-4-yl]-methanone] | 2 | 110 | 26000 |  | 
C[C@@H]1CN(C(=O)c2ccc(Cl)cc2-n2nccn2)[C@H](Cc2cccc(-c3ncccn3)c2)CO1 [Example 114, (4-Chloro-2-[1,2,3]triazol-2-yl-phenyl)-[(2R,5R)-2-methyl-5-(3-pyrimidin-2-yl-benzyl)-morpholin-4-yl]-methanone] | 1 | 83 | 35000 |  | 
Cc1ccc(-n2nccn2)c(C(=O)N2C[C@@H](C)OC[C@H]2Cc2cc(-n3nccn3)ccc2F)c1 [Example 115, [(2R,5R)-5-(2-Fluoro-5-[1,2,3]triazol-2-yl-benzyl)-2-methyl-morpholin-4-yl]-(5-methyl-2-[1,2,3]triazol-2-yl-phenyl)-methanone] | 2 | 146 | 24000 |  | 
Cc1ccc(C(=O)N2C[C@@H](C)OC[C@H]2Cc2cc(-n3nccn3)ccc2F)c(-n2nccn2)c1 [Example 117, [(2R,5R)-5-(2-Fluoro-5-[1,2,3]triazol-2-yl-benzyl)-2-methyl-morpholin-4-yl]-(4-methyl-2-[1,2,3]triazol-2-yl-phenyl)-methanone] | 5 | 107 | 23000 |  | 
Cc1cccc(C(=O)N2C[C@@H](C)OC[C@H]2Cc2cc(-n3nccn3)ccc2F)c1-n1nccn1 [Example 118, [(2R,5R)-5-(2-Fluoro-5-[1,2,3]triazol-2-yl-benzyl)-2-methyl-morpholin-4-yl]-(3-methyl-2-[1,2,3]triazol-2-yl-phenyl)-methanone] | 10 | 728 | 23000 |  | 
Cc1ccc(-n2nccn2)c(C(=O)N2CCOC[C@H]2Cc2cc(-n3nccn3)ccc2C)c1 [Example 119, [(R)-3-(2-Methyl-5-[1,2,3]triazol-2-yl-benzyl)-morpholin-4-yl]-(5-methyl-2-[1,2,3]triazol-2-yl-phenyl)-methanone] | 6 | 593 | 19000 |  | 
Cc1ccc(-n2nccn2)cc1C[C@@H]1COCCN1C(=O)c1ccccc1-n1nccn1 [Example 121, [(R)-3-(2-Methyl-5-[1,2,3]triazol-2-yl-benzyl)-morpholin-4-yl]-(2-[1,2,3]triazol-2-yl-phenyl)-methanone] | 26 | 1640 | 18000 |  | 
Cc1cccc(C(=O)N2CCOC[C@H]2Cc2cc(-n3nccn3)ccc2Cl)c1-n1nccn1 [Example 122, [(R)-3-(2-Chloro-5-[1,2,3]triazol-2-yl-benzyl)-morpholin-4-yl]-(3-methyl-2-[1,2,3]triazol-2-yl-phenyl)-methanone] | 6 | 1610 | 18000 |  | 
Cc1ccc(C(=O)N2CCOC[C@H]2Cc2cc(-n3nccn3)ccc2C)c(-n2nccn2)c1 [Example 123, [(R)-3-(2-Methyl-5-[1,2,3]triazol-2-yl-benzyl)-morpholin-4-yl]-(4-methyl-2-[1,2,3]triazol-2-yl-phenyl)-methanone] |  |  | 27000 | 5 | 939

Further lines, with some results ahead:

IC50 (human orexin-1 receptor; [1]) [nM] | IC50 (human orexin-2 receptor; [2]) [nM] | IC50 (CYP3A4) [nM] | Structure (SMILES) | IC50 (human orexin-1 receptor) [nM] | IC50 (human orexin-2 receptor) [nM]
9 | 997 | 22000 | Cc1ccc(-n2nccn2)cc1C[C@@H]1COCCN1C(=O)c1cccc(C)c1-n1nccn1 [Example 124, [(R)-3-(2-Methyl-5-[1,2,3]triazol-2-yl-benzyl)-morpholin-4-yl]-(3-methyl-2-[1,2,3]triazol-2-yl-phenyl)-methanone] |  | 
7 | 626 | 22000 | Cc1ccc(-n2nccn2)c(C(=O)N2CCOC[C@H]2Cc2cc(-n3nccn3)ccc2Cl)c1 [Example 125, [(R)-3-(2-Chloro-5-[1,2,3]triazol-2-yl-benzyl)-morpholin-4-yl]-(5-methyl-2-[1,2,3]triazol-2-yl-phenyl)-methanone] |  | 
40 | 1480 | 17000 | O=C(c1ccccc1-n1nccn1)N1CCOC[C@H]1Cc1cc(-n2nccn2)ccc1Cl [Example 126, [(R)-3-(2-Chloro-5-[1,2,3]triazol-2-yl-benzyl)-morpholin-4-yl]-(2-[1,2,3]triazol-2-yl-phenyl)-methanone] |  | 
26 | 1500 | 30000 | Cc1cccc(C(=O)N2CCOC[C@H]2Cc2cc(-n3nccn3)ccc2F)c1-n1nccn1 [Example 127, [(R)-3-(2-Fluoro-5-[1,2,3]triazol-2-yl-benzyl)-morpholin-4-yl]-(3-methyl-2-[1,2,3]triazol-2-yl-phenyl)-methanone] |  | 
12 | 188 | 26000 | O=C(c1cc(Cl)ccc1-n1nccn1)N1CCOC[C@H]1Cc1cc(-n2nccn2)ccc1F [Example 129, (5-Chloro-2-[1,2,3]triazol-2-yl-phenyl)-[(R)-3-(2-fluoro-5-[1,2,3]triazol-2-yl-benzyl)-morpholin-4-yl]-methanone] |  | 
4 | 1130 | 35000 | COc1ccc(-n2nccn2)c(C(=O)N2CCOC[C@H]2Cc2cc(-n3nccn3)ccc2F)c1 [Example 131, [(R)-3-(2-Fluoro-5-[1,2,3]triazol-2-yl-benzyl)-morpholin-4-yl]-(5-methoxy-2-[1,2,3]triazol-2-yl-phenyl)-methanone] |  | 
8 | 1170 | 19000 | Cc1ccc(-n2nccn2)c(C(=O)N2CCOC[C@H]2Cc2cc(-n3nccn3)ccc2F)c1F [Example 132, (2-Fluoro-3-methyl-6-[1,2,3]triazol-2-yl-phenyl)-[(R)-3-(2-fluoro-5-[1,2,3]triazol-2-yl-benzyl)-morpholin-4-yl]-methanone] |  | 
22 | 2600 | 37000 | COc1ccc(-n2nccn2)c(C(=O)N2CCOC[C@H]2Cc2cc(-n3nccn3)ccc2F)c1F [Example 133, (2-Fluoro-3-methoxy-6-[1,2,3]triazol-2-yl-phenyl)-[(R)-3-(2-fluoro-5-[1,2,3]triazol-2-yl-benzyl)-morpholin-4-yl]-methanone] |  | 
11 | 336 | 19000 | COc1cc(C(=O)N2CCOC[C@H]2Cc2cc(-n3nccn3)ccc2F)c(-n2nccn2)cc1C [Example 134, [(R)-3-(2-Fluoro-5-[1,2,3]triazol-2-yl-benzyl)-morpholin-4-yl]-(5-methoxy-4-methyl-2-[1,2,3]triazol-2-yl-phenyl)-methanone] |  | 
16 | 1880 | 30000 | O=C(c1cccc(Cl)c1-n1nccn1)N1CCOC[C@H]1Cc1cc(-n2nccn2)ccc1F [Example 135, (3-Chloro-2-[1,2,3]triazol-2-yl-phenyl)-[(R)-3-(2-fluoro-5-[1,2,3]triazol-2-yl-benzyl)-morpholin-4-yl]-methanone] |  | 
4 | 159 | 7400 | O=C(c1ccc(C(F)(F)F)cc1-n1nccn1)N1CCOC[C@H]1Cc1cc(-n2nccn2)ccc1F [Example 138, [(R)-3-(2-Fluoro-5-[1,2,3]triazol-2-yl-benzyl)-morpholin-4-yl]-(2-[1,2,3]triazol-2-yl-4-trifluoromethyl-phenyl)-methanone] |  | 
